Measured values taken from patent US6262119A, “Methods of treating immunopathologies using polyunsaturated fatty acids” (priority 1996, dated 2001).
Read-outs that look alike come from different tables or passages of the source.

How the values were obtained:
DTH induced by SRBC = test: Delayed type hypersensitivity against sheep red blood cells; format: in vivo, Female balb/c mice
Protocol: Delayed Type Hypersensitivity Against Sheep Red Blood Cells. Female balb/c mice were administered a priming dose of 100 μl of a 10% haematocrit of sheep red blood cells (SRBC) subcutaneously. Six days later mice were administered 25 μl of a 10% haematocrit of SRBC intradermally into the right hind footpad at time T-0 hrs. The subsequent anti-inflammatory response was evaluated by measuring the thickness of both hind footpads. Standard anti-inflammatory compounds, vehicle and test substances were administered intraperitonieally one hour prior to the SRBC challenge. PUFA compounds were administered in peanut oil.

[1] = test system: peripheral blood mononuclear cell proliferation; test: Mononuclear cell proliferation assay (thymidine incorporation); format: cell-based, human; details: for % INHIBITION OF INDUCED PROLIFERATION AT 20 μM PUFA: mitogen-induced PBMC proliferation, one experiment in duplicate, representative of 4; for inhibition at 20 µM: Homo sapiens, read-out: % INHIBITION OF PROLIFERATION
Protocol: Mononuclear Cell Proliferation Assays
Mononuclear cells were separated from peripheral blood of normal human donors as described by Ferrante and Thong (1980, J. Immunol. Methods 36:109)). The mononuclear cells were resuspended in RPMI-1640 containing 20% human AB serum and placed into 96 well microtrays (50 μl per well, cell density 4×10^6 cells/ml). Fatty acid ([…]) was then added in 50ul and pre-incubated with the cells for 30 min at 37° C. in 5% CO2. Mitogen (PHA, ConA, PWM, Staph. aureus) was then added in 100 μl and the cells incubated for 66 hours at 37° C. in 5% CO2 before the addition of tritiated thymidine (1 μCi/well). After a total of 72 h in culture the cells were harvested and proliferation (thymidine incorporation) and supernatant's assayed for the presence of cytokines.

TNFα = test: PHA-induced TNFα production (ELISA of mononuclear cell supernatants); format: cell-based; details: Homo sapiens
Protocol: (§1) Fatty acid (66pmn) was then added in 50ul and pre-incubated with the cells for 30 min at 37° C. in 5% CO2. Mitogen (PHA, ConA, PWM, Staph. aureus) was then added in 100 μl and the cells incubated for 66 hours at 37° C. in 5% CO2 before the addition of tritiated thymidine (1 μCi/well). After a total of 72 h in culture the cells were harvested and proliferation (thymidine incorporation) and supernatant's assayed for the presence of cytokines.
(§2) Cytokine levels in culture supernatants were determined by specific ELISA using anti-cytokine antibodies. The following cytokine levels were determined TNFα, TNFβ, interferon-γ, IL-1β, IL-2.

psoriasis = details: drugs which block the cyclo-oxygenase pathway; cited from earlier work
interferon γ = test: PHA-stimulated interferon γ production (ELISA of mononuclear cell supernatants); format: cell-based; details: Homo sapiens, amino acid conjugated PUFA at 20 μM (Table 6), read-out: % inhibition of IFNγ production
Protocol: as §1, §2

[2] = PHA-induced TNFα, PUFA at 20 μM (Table 4), read-out: % INHIBITION OF CYTOKINE PRODUCTION (TNFα)
[3] = PHA-stimulated, amino acid conjugated PUFA at 20 μM (Table 6), read-out: % inhibition of TNFα production

SMILES: CCCCCC(O)/C=C/C=C\C/C=C\CCCCCOCC(=O)O (stereo not drawn) [16-OH-β-oxa 21:3 (n-6), Z, Z, E-(13-Hydroxy-6,9,1-octadecatienyloxy) acetic acid]
- % paw volume relative to control (DTH induced by SRBC; 10 mg/kg, 3 hours post challenge): 95.03%
- % paw volume relative to control (DTH induced by SRBC; 10 mg/kg, 6 hours post challenge): 81.63%
- % paw volume relative to control (DTH induced by SRBC; 10 mg/kg, 24 hours post challenge): 86.91%
- % paw volume relative to control (DTH induced by SRBC; 50 mg/kg, 3 hours post challenge): 65.01%
- % paw volume relative to control (DTH induced by SRBC; 50 mg/kg, 6 hours post challenge): 48.95%
- % paw volume relative to control (DTH induced by SRBC; 50 mg/kg, 24 hours post challenge): 51.02%
- % paw volume relative to control (DTH induced by SRBC; 100 mg/kg, 3 hours post challenge): 55.86%
- % paw volume relative to control (DTH induced by SRBC; 100 mg/kg, 6 hours post challenge): 40.94%
- % paw volume relative to control (DTH induced by SRBC; 100 mg/kg, 24 hours post challenge): 31.97%
- % INHIBITION OF INDUCED PROLIFERATION AT 20 μM PUFA [1]: 50%
- inhibition at 20 µM (TNFα; [2]): 71%

SMILES: COc1ccc2c(c1)c(CC(=O)O)c(C)n2C(=O)c1ccc(Cl)cc1 [Indomethacin, reference compound]
- % paw volume relative to control (DTH induced by SRBC; 30 mg/kg, 3 hours post challenge): 89.59%
- % paw volume relative to control (DTH induced by SRBC; 30 mg/kg, 6 hours post challenge): 81.40%
- % paw volume relative to control (DTH induced by SRBC; 30 mg/kg, 24 hours post challenge): 49.57%
- exacerbations of psoriasis (psoriasis): induce exacerbations of psoriasis

SMILES: C[C@]12C=CC(=O)C=C1CC[C@@H]1[C@@H]2[C@@H](O)C[C@@]2(C)[C@H]1CC[C@]2(O)C(=O)CO [Prednisolone, reference compound]
- % paw volume relative to control (DTH induced by SRBC; 20 mg/kg, 3 hours post challenge): 58.35%
- % paw volume relative to control (DTH induced by SRBC; 20 mg/kg, 6 hours post challenge): 60.12%
- % paw volume relative to control (DTH induced by SRBC; 20 mg/kg, 24 hours post challenge): 100%

SMILES: CCCCC/C=C\C/C=C\C/C=C\C/C=C\CCCC(=O)N[C@@H](CC(=O)O)C(=O)O [arachidonic acid-aspartic acid]
- inhibition at 20 µM (interferon γ): 68.4%
- inhibition at 20 µM (TNFα; [3]): 38.3%

SMILES: CCCCC/C=C\C/C=C\C/C=C\C/C=C\CCCC(=O)NCC(=O)O [arachidonic acid-glycine]
- inhibition at 20 µM [1]: 8%
- inhibition at 20 µM (interferon γ): 35.9%
- inhibition at 20 µM (TNFα; [3]): 26.6%

SMILES: CC/C=C\C/C=C\C/C=C\C/C=C\C/C=C\C/C=C\CCC(=O)N[C@@H](CC(=O)O)C(=O)O [docosahexanoic acid-aspartic acid]
- inhibition at 20 µM (interferon γ): 8.3%
- inhibition at 20 µM (TNFα; [3]): 17.4%

SMILES: CC/C=C\C/C=C\C/C=C\C/C=C\C/C=C\C/C=C\CCC(=O)NCC(=O)O [docosahexanoic acid-glycine]
- inhibition at 20 µM (interferon γ): 44%
- inhibition at 20 µM (TNFα; [3]): 16.2%

SMILES: CC/C=C\C/C=C\C/C=C\C/C=C\C/C=C\CCCC(=O)N[C@@H](CC(=O)O)C(=O)O [eicosapentanoic acid-aspartic acid]
- inhibition at 20 µM (interferon γ): 66.1%
- inhibition at 20 µM (TNFα; [3]): 17.1%

SMILES: CC/C=C\C/C=C\C/C=C\C/C=C\C/C=C\CCCC(=O)NCC(=O)O [eicosapentanoic acid-glycine]
- inhibition at 20 µM (interferon γ): 68.2%
- inhibition at 20 µM (TNFα; [3]): 11%

SMILES: Cc1ccc(Cl)c(Nc2ccccc2C(=O)O)c1Cl [meclotenamate]
- exacerbations of psoriasis (psoriasis): induce exacerbations of psoriasis

SMILES: CCCCC1C(=O)N(c2ccccc2)N(c2ccccc2)C1=O [phenylbutazone]
- exacerbations of psoriasis (psoriasis): induce exacerbations of psoriasis

SMILES: CC/C=C\C/C=C\C/C=C\CCCCCCCC(=O)N[C@@H](CC(=O)O)C(=O)O [α-linolenic acid-aspartic acid]
- inhibition at 20 µM ([1]; induced by PHA, PUFA at 20 μM): 7.3%
- inhibition at 20 µM (interferon γ): 0%
- inhibition at 20 µM (TNFα; [3]): 0%

SMILES: CC/C=C\C/C=C\C/C=C\CCCCCCCC(=O)NCC(=O)O [α-linolenic acid-glycine]
- inhibition at 20 µM ([1]; induced by PHA, PUFA at 20 μM): 15.6%
- inhibition at 20 µM (interferon γ): 14.5%
- inhibition at 20 µM (TNFα; [3]): 29.3%

SMILES: CC/C=C\C/C=C\C/C=C\CCCCCCCCOCC(=O)O [β-oxa 21:3 (n-3), Z, Z, Z (9, 12, 15-Octadecatrienyloxy) acetic acid]
- inhibition at 20 µM (TNFα; [2]): 39%

SMILES: CCCCC/C=C\C/C=C\C/C=C\CCCCCOCC(=O)O [β-oxa 21:3 (n-6), Z, Z, Z (6,9, 12-Octadecatrienyloxy) acetic acid]
- % INHIBITION OF INDUCED PROLIFERATION AT 20 μM PUFA [1]: 17%
- inhibition at 20 µM (TNFα; [2]): 38%

SMILES: CCCCC/C=C\C/C=C\C/C=C\C/C=C\CCCCOCC(=O)O [β-oxa 23:4 (n-6), Z, Z, Z, Z (5,8, 11, 14-Eicosatetraenyloxy) acetic acid]
- inhibition at 20 µM (TNFα; [2]): 25%

SMILES: CC/C=C\C/C=C\C/C=C\CCCCCCCCSCC(=O)O [β-thia 21:3 (n-3), Z,Z,Z,Z-(9,12,15-Octadecatrienylthio)acetic acid]
- % INHIBITION OF INDUCED PROLIFERATION AT 20 μM PUFA [1]: 28%
- inhibition at 20 µM (TNFα; [2]): 17%

SMILES: CCCCC/C=C\C/C=C\C/C=C\CCCCCSCC(=O)O [β-thia 21:3 (n-6), Z,Z,Z,Z-(6,9, 12-Octadecatrienythio)acetica acid]
- inhibition at 20 µM (TNFα; [2]): 17%

SMILES: CCCCC/C=C\C/C=C\C/C=C\C/C=C\CCCCSCC(=O)O [β-thia 23:4 (n-6), Z,Z,Z,Z-(5,8,11,14-Eicosatetraenylthio) acetic acid]
- inhibition at 20 µM (TNFα; [2]): 35%

SMILES: CC/C=C\C/C=C\C/C=C\C/C=C\C/C=C\C/C=C\CCCSCC(=O)O [β-thia 25:6 (n-3)]
- % INHIBITION OF INDUCED PROLIFERATION AT 20 μM PUFA [1]: 97%
- inhibition at 20 µM (TNFα; [2]): 90%

SMILES: CCCCC/C=C\C/C=C\C/C=C\CCCCC(=O)N[C@@H](CC(=O)O)C(=O)O [γ-linolenic acid-aspartic acid]
- inhibition at 20 µM ([1]; induced by PHA, PUFA at 20 μM): 15.4%
- inhibition at 20 µM (interferon γ): 0%
- inhibition at 20 µM (TNFα; [3]): 4.7%

SMILES: CCCCC/C=C\C/C=C\C/C=C\CCCCC(=O)NCC(=O)O [γ-linolenic acid-glycine]
- inhibition at 20 µM ([1]; induced by PHA, PUFA at 20 μM): 29%
- inhibition at 20 µM (interferon γ): 0%
- inhibition at 20 µM (TNFα; [3]): 21.5%

SMILES: CC/C=C\C/C=C\C/C=C\CCCCCCCCSCCC(=O)O [γ-thia 22:3 (n-3), Z,Z,Z,Z-(9,12,15-Octadecatrienylthio)proponionic acid]
- inhibition at 20 µM (TNFα; [2]): 25%

SMILES: CCCCC/C=C\C/C=C\C/C=C\CCCCCSCCC(=O)O [γ-thia 22:3 (n-6), Z,Z,Z,Z-(6,9,12-Octadecatrienylthio)propionic acid]
- inhibition at 20 µM (TNFα; [2]): 41%

SMILES: CCCCC/C=C\C/C=C\C/C=C\C/C=C\CCCCSCCC(=O)O [γ-thia 24:4 (n-6), Z,Z,Z,Z-(5,8,11,14-Eicosatetraenylthio) propionic acid]
- inhibition at 20 µM (TNFα; [2]): 34%
